Measured values: patent publication US8735575B2, “Phenoxazine derivatives and methods of use thereof” (Washington University, priority 2010, dated 2014)
Where two headings read alike, the source gives them in different places.

What was measured:
physchem = assay type: physicochemical
Method: (§1) The logPoct value is widely used in quantitative structure-activity relationship (QSAR) studies and rational drug design as a measure of molecular hydrophobicity. Hydrophobicity affects drug absorption, bioavailability, hydrophobic drug-receptor interactions, metabolism of molecules, and their toxicity. […] The mixture will be incubated with agitation for 30 min until ionic and non-ionic forms of test compound reach equilibrium. Two layers will be separated by centrifugation. Test compound's concentrations in octanol and water layers will be determined by UV/VIS spectrophotometry. The logPoct value will be calculated from log(concentration in n-octanol fraction/concentration in water fraction). Experiments will be repeated at least 3 times with triplicated samples.

[1] = test system: cerebrovascular Aβ deposits; assay: In vivo live imaging of CAA amyloid deposits through closed cranial window; set-up: species or system mouse (Tg2576); conditions: 16-month old Tg2576 mice, resorufin 2 μM
Method: FIG. 4 depicts in vivo live imaging of CAA amyloid deposits through closed cranial window. A,B. Closed cranial window was prepared on the right parietal bone of 16-month-old Tg2576 mice. Leptomeningeal arterioles (B) were subjected to live imaging using a fluorescent microscope. […] Scale bars: in C-E: 250 μm, in E: 100 μm.
as §1

[2] = cited from earlier work; for Lipophilicity Poct: data from the previous report (Klunk et al. 2002)
neuritic plaques = neuritic plaques (Homo sapiens, UniProt P05067); assay: In situ binding assay on neuritic plaques in fixed brain sections of Tg2576 mice; set-up: species or system mouse (Tg2576); conditions: for Kd: in situ, Tg2576 brain sections, read-out: Binding affinity in situ, KD (nM) on Plaques
Description: (§2) Tg2576 mice are a well characterized mouse model of AD and CAA. They develop congophilic Aβ aggregates within neuritic plaques and leptomeningeal and cortical penetrating arteries at 11 months of age (Hsiao et al., 1996; Kawarabayashi et al., 2001; Fryer et al., 2005; Han et al., 2008).
(§3) The Ki values for CAA vs. neuritic plaques will be calculated utilizing the fluorescent amyloid-ligand methoxy-X34 and fluorescent microscopic method. […] Tissue sections (3 sections per reaction) will be then mounted and coverslipped. Photographs of methoxy-X34 binding images will be taken using a Nikon fluorescent microscope. The fluorescent intensity on cerebral amyloid deposits and neuritic plaques will be separately quantified using Image J software. Finally, Ki values will be calculated by plotting % bound vs. log concentrations of competitors followed by non-linear regression using the GraphPad Prism software. The maximum binding will be obtained from the methoxy-X34 intensity in the absence of competitors, while non-specific binding will be detected by the fluorescent intensity in brain tissues incubated without methoxy-X34.
(§4) Tg2576 mice or littermate controls at 15 months of age will be perfused with phosphatebuffered saline (PBS) for 5 min. Brains will be removed, fixed in 4% paraformaldehyde, and preserved in 30% glucose-PBS solution at 4° C. Brains will be coronally sectioned using a microtome and kept in cryoprotectant solution at −20° C. To label amyloid deposits, brain sections (3 sections per reaction) will be permeabilized with PBS containing 0.25% Triton X-100 for 20 min at room temperature, followed by incubation with 1 μM methoxy-X34 in the presence or absence of competitors at various concentrations (10-9-10-6 M). Sections will be subjected to fluorescent microscopy using a Nikon Eclipse C600 microscope. The fluorescent intensity of methoxy-X34 in vessels and neuritic plaques will be quantified using the ImageJ software. The binding affinity (Ki) will be calculated using the GraphPad Prism software.

CAA [3] = target: T1, CAA (Homo sapiens, UniProt P05067); assay: In situ binding assay on CAA in fixed brain sections of Tg2576 mice; set-up: species or system mouse (Tg2576); Binding affinity in situ, Bmax on CAA: unit not given here; conditions: for Kd: read-out: Binding affinity in situ, KD (nM) on CAA
CAA [4] = target: T1, CAA; assay: as above; set-up: species or system mouse (Tg2576)
Description: as §2, §3, §4

[5] = normal mice, cited from earlier work
CAA vs. neuritic plaques [6] = assay: Fluorescent co-staining of fixed brain sections of Tg2576 mice; set-up: species or system mouse (Tg2576); conditions: aged Tg2576 mice, FIG. 1
Description: as §2

CAA vs. neuritic plaques [7] = assay: Staining of paraffin-embedded cortical sections of a human AD patient; conditions: autopsied AD patient cortical sections, FIG. 3
Description: as §2

CAA [8] = target: T1, CAA; assay: Binding affinities for CAA on isolated vessels determined by fluorescent binding; conditions: read-out: Binding affinity (nM) Ki
Method: The isolation of cerebral vessels for biochemical analysis will be performed as described (78, 98). […] After the cerebellum is removed, the brain will be homogenized in fivefold excess of vessel buffer. An equal volume of 26% dextran will be added, and the tissue will be centrifuged at 6200×g for 30 min at 4° C. The resulting vessels form a pellet, whereas the parenchymal “vessel-free” material forms a solid, compact disc at the top of the solution. The […] will be resuspended in vessel buffer and passed over a 40-μm nylon mesh to capture vessels. Vessel and parenchymal material will be lysed in 5 M guanidine, 50 mM Tris, pH 8, with protease inhibitor cocktail (Roche) for 3 hr.

Compound: O=c1ccc2nc3ccc(OCc4ccc(I)cc4)cc3oc-2c1 [WC-5-31]
- Lipophilicity Poct (physchem; 30 min): >4.89??

Compound: COc1cc(/C=C/c2ccc(O)cc2)ccc1/C=C/c1ccc(O)cc1 [Methoxy-X04, reference compound]
- fluorescent labeling in live mice, topical application through cranial window [1]: present in both cerebral arteries and parenchymal neuritic plaques
- Lipophilicity Poct [2]: ^b2.6

Compound: C#COc1ccc2nc3ccc(=O)cc-3oc2c1 [WC-5-1]
- Kd (neuritic plaques): > 4000 nM
- Lipophilicity Poct (physchem): 2.407
- Binding affinity in situ, Bmax on CAA (CAA [3]): 485
- Kd (CAA [3]): 173 nM

Compound: phenyl-resorufin
- binding affinity for CAA deposits, in words (CAA [4]): low nanomolar range
- lipophilicity, in words (physchem): moderate lipophilicity

Compound: O=c1ccc2nc3ccc(OCCBr)cc3oc-2c1 [WC-5-9]
- logP (physchem): 2.2

Compound: CCCCCOc1ccc2nc3ccc(=O)cc-3oc2c1 [Pentoxy-resorufin]
- logP (physchem): 2.34

Compound: COc1ccc(COc2ccc3nc4ccc(=O)cc-4oc3c2)cc1 [WC-5-5]
- logP (physchem): 1.91
- Binding affinity in situ, Bmax on CAA (CAA [3]): 135

Compound: O=c1ccc2nc3ccc(OCc4ccc(OCCF)cc4)cc3oc-2c1 [WC-5-7]
- logP (physchem): 3.42
- Binding affinity in situ, Bmax on CAA (CAA [3]): 1304

Compound: [11CH3]Oc1cc(C=Cc2ccc(O)cc2)ccc1C=Cc1ccc(O)cc1 [[11C]methoxy-X04]
- logPoct ([2]; cited study (96)): 2.6

Compound: [11CH3]Nc1ccc(-c2nc3ccc(O)cc3s2)cc1 [[11C]PIB]
- brain uptake at 2 min after injection ([5]; 2 min): 3.2 % ID/g
- brain level after washout at 60 min ([5]; 60 min): 0.21 % ID/g
- fraction in the brain cleared within 60 min ([5]; within 60 min): 93%

Compound: O=c1ccc2nc3ccc(OCCF)cc3oc-2c1 [WC-5-2]
- Kd (neuritic plaques): > 4000 nM
- Lipophilicity Poct (physchem): 2.774
- Binding affinity in situ, Bmax on CAA (CAA [3]): 869
- Kd (CAA [3]): 235 nM

Compound: COc1cccc(COc2ccc3nc4ccc(=O)cc-4oc3c2)c1 [WC-5-4]
- logP (physchem): 2.97
- Binding affinity in situ, Bmax on CAA (CAA [3]): 699

Compound: O=c1ccc2nc3ccc(OCc4ccccc4)cc3oc-2c1 [Benzyloxy-resorufin]
- logP (physchem): 2.21
- Binding affinity in situ, Bmax on CAA (CAA [3]): 410

Compound: COc1ccc2nc3ccc(=O)cc-3oc2c1 [Methoxy-resorufin]
- logP (physchem): 1.95

Compound: methoxyphenyl-resorufin
- binding affinity for CAA deposits, in words (CAA [4]): low nanomolar range
- lipophilicity, in words (physchem): moderate lipophilicity

Compound: O=c1ccc2nc3ccc(OCc4cn(CCF)nn4)cc3oc-2c1 [WC-5-3]
- logP (physchem): 2.04
- Binding affinity in situ, Bmax on CAA (CAA [3]): 527

Compound: O=c1ccc2nc3ccc(O)cc3oc-2c1 [Resorufin]
- binding to neuritic plaques (neuritic plaques; in situ binding assay at a concentration of 160 μM): negligible
- logP (physchem): 0.387
- staining of CAA vs. neuritic plaques (CAA vs. neuritic plaques [6]): CAA>>>neuritic plaques
- staining of 3D6-positive arterioles vs. neuritic plaques (CAA vs. neuritic plaques [7]): prominent in 3D6-positive cerebral arterioles but was rarely seen in 3D6-positive neuritic plaques
- Binding affinity in situ, Bmax on CAA (CAA [3]): 1523/ 885

Compound: CCOc1ccc2nc3ccc(=O)cc-3oc2c1 [ethyl-resorufin]
- binding affinity for CAA deposits, in words (CAA [4]): low nanomolar range
- lipophilicity, in words (physchem): moderate lipophilicity

Compound: CC(=O)OCCOc1ccc2nc3ccc(=O)cc-3oc2c1 [WC-5-8]
- logP (physchem): 2.09

Compound: [11CH3]Oc1ccc(C=Cc2ccc(C=Cc3ccc(O)c(C(=O)O)c3)cc2)cc1C(=O)O [Methoxy-X34]
- Lipophilicity Poct [2]: ^b0.19

Compound: CCOc1ccc2nc3ccc(=O)cc-3oc2c1 [Ethoxy-resorufin]
- logP (physchem): 2.35
- Ki (CAA [8]): 262 nM
- Binding affinity in situ, Bmax on CAA (CAA [3]): 107
- Kd (CAA [3]): 247 nM

Compound: CC(=O)Oc1ccc2nc3ccc(=O)cc-3oc2c1 [Resorufin acetate]
- logP (physchem): 2.79
